In the NIST ThermoML archive (doi:10.1021/je9006597):
± gives the expanded uncertainty stated by the source.

How the values were obtained:
[1] = xn = mol fraction of the nth substance listed; conditions: 101 kPa, Liquid; for speed of sound: Pulse-echo method
[2] = 101 kPa, Liquid; for speed of sound: Pulse-echo method

COC(=O)c1ccccc1 [methyl benzoate] + CCCCCCC
[1]
Conditions | mass density, 303.15 K [kg/m3] | mass density, 308.15 K [kg/m3] | mass density, 313.15 K [kg/m3] | speed of sound, 303.15 K [m/s] | speed of sound, 308.15 K [m/s] | speed of sound, 313.15 K [m/s] | viscosity, 303.15 K [mPa·s] | viscosity, 308.15 K [mPa·s] | viscosity, 313.15 K [mPa·s]
x1 = 0.1154 | 715.5 ± 1 | 711.3 ± 1 | 708.1 ± 1 | 1128 ± 5 | 1108 ± 5 | 1088 ± 5 | 0.413 ± 0.016 | 0.38 ± 0.015 | 0.35 ± 0.014
x1 = 0.2273 | 756.4 ± 0.9 | 752.4 ± 0.9 | 749.1 ± 0.9 | 1148 ± 5 | 1128 ± 5 | 1108 ± 5 | 0.467 ± 0.017 | 0.43 ± 0.016 | 0.401 ± 0.015
x1 = 0.335 | 797.1 ± 0.8 | 793.1 ± 0.8 | 789.8 ± 0.8 | 1168 ± 5 | 1148 ± 5 | 1128 ± 5 | 0.533 ± 0.019 | 0.494 ± 0.018 | 0.458 ± 0.017
x1 = 0.439 | 837.7 ± 0.8 | 833.9 ± 0.8 | 830.5 ± 0.8 | 1192 ± 5 | 1172 ± 5 | 1152 ± 5 | 0.627 ± 0.022 | 0.575 ± 0.02 | 0.529 ± 0.019
x1 = 0.5404 | 878.6 ± 0.7 | 874.8 ± 0.7 | 871.3 ± 0.7 | 1220 ± 5 | 1196 ± 5 | 1180 ± 5 | 0.723 ± 0.024 | 0.666 ± 0.023 | 0.615 ± 0.021
x1 = 0.6365 | 918.3 ± 0.6 | 914.7 ± 0.7 | 911.1 ± 0.7 | 1248 ± 5 | 1228 ± 5 | 1212 ± 5 | 0.84 ± 0.028 | 0.781 ± 0.026 | 0.728 ± 0.025
x1 = 0.7324 | 959 ± 0.6 | 955.3 ± 0.6 | 951.7 ± 0.6 | 1276 ± 5 | 1260 ± 5 | 1248 ± 5 | 0.99 ± 0.032 | 0.904 ± 0.03 | 0.849 ± 0.028
x1 = 0.8252 | 999.4 ± 0.5 | 995.7 ± 0.5 | 992.1 ± 0.6 | 1308 ± 5 | 1296 ± 5 | 1284 ± 5 | 1.172 ± 0.037 | 1.068 ± 0.034 | 0.982 ± 0.032
x1 = 0.9133 | 1038.7 ± 0.6 | 1034.8 ± 0.6 | 1030.9 ± 0.6 | 1348 ± 6 | 1336 ± 5 | 1324 ± 5 | 1.404 ± 0.044 | 1.284 ± 0.04 | 1.15 ± 0.036
x1 = 1 | 1078.3 ± 0.7 | 1074.4 ± 0.7 | 1070.3 ± 0.7 | 1380 ± 6 | 1364 ± 6 | 1348 ± 6 | 1.667 ± 0.051 | 1.514 ± 0.047 | 1.376 ± 0.043

COC(=O)c1ccccc1 [methyl benzoate] + CCCCCCCC
[1]
Conditions | mass density, 303.15 K [kg/m3] | mass density, 308.15 K [kg/m3] | mass density, 313.15 K [kg/m3] | speed of sound, 303.15 K [m/s] | speed of sound, 308.15 K [m/s] | speed of sound, 313.15 K [m/s] | viscosity, 303.15 K [mPa·s] | viscosity, 308.15 K [mPa·s] | viscosity, 313.15 K [mPa·s]
x1 = 0.129 | 732.2 ± 0.9 | 728.8 ± 0.9 | 725.3 ± 0.9 | 1160 ± 5 | 1140 ± 5 | 1124 ± 5 | 0.522 ± 0.019 | 0.484 ± 0.018 | 0.447 ± 0.017
x1 = 0.2456 | 770 ± 0.9 | 766.4 ± 0.9 | 762.9 ± 0.9 | 1180 ± 5 | 1160 ± 5 | 1144 ± 5 | 0.576 ± 0.02 | 0.529 ± 0.019 | 0.492 ± 0.018
x1 = 0.3586 | 809.2 ± 0.8 | 805.5 ± 0.8 | 801.8 ± 0.8 | 1200 ± 5 | 1180 ± 5 | 1164 ± 5 | 0.644 ± 0.022 | 0.596 ± 0.021 | 0.556 ± 0.02
x1 = 0.4655 | 848.4 ± 0.7 | 844.5 ± 0.8 | 840.7 ± 0.8 | 1220 ± 5 | 1200 ± 5 | 1184 ± 5 | 0.727 ± 0.025 | 0.668 ± 0.023 | 0.621 ± 0.022
x1 = 0.5672 | 887.5 ± 0.7 | 883.6 ± 0.7 | 879.7 ± 0.7 | 1240 ± 5 | 1224 ± 5 | 1204 ± 5 | 0.832 ± 0.028 | 0.762 ± 0.026 | 0.705 ± 0.024
x1 = 0.662 | 925.8 ± 0.6 | 921.9 ± 0.6 | 918 ± 0.6 | 1260 ± 5 | 1248 ± 5 | 1228 ± 5 | 0.936 ± 0.03 | 0.857 ± 0.028 | 0.788 ± 0.026
x1 = 0.7528 | 964.3 ± 0.6 | 960.3 ± 0.6 | 956.5 ± 0.6 | 1284 ± 5 | 1272 ± 5 | 1252 ± 5 | 1.084 ± 0.035 | 0.99 ± 0.032 | 0.913 ± 0.03
x1 = 0.8382 | 1002.3 ± 0.5 | 998.1 ± 0.5 | 994.3 ± 0.5 | 1308 ± 5 | 1300 ± 5 | 1280 ± 5 | 1.245 ± 0.039 | 1.125 ± 0.036 | 1.033 ± 0.033
x1 = 0.9213 | 1040.6 ± 0.6 | 1036.4 ± 0.6 | 1032.4 ± 0.6 | 1340 ± 6 | 1328 ± 5 | 1308 ± 5 | 1.434 ± 0.044 | 1.303 ± 0.041 | 1.193 ± 0.038
x1 = 1 | 1078.3 ± 0.7 | 1074.4 ± 0.7 | 1070.3 ± 0.7 | 1380 ± 6 | 1364 ± 6 | 1348 ± 6 | 1.667 ± 0.051 | 1.514 ± 0.047 | 1.376 ± 0.043

CCCCCCCC [octane]
[2]
Conditions | mass density [kg/m3] | speed of sound [m/s] | viscosity [mPa·s]
303.15 K | 693.9 ± 1 | 1148 ± 5 | 0.491 ± 0.018
308.15 K | 690.4 ± 1 | 1132 ± 5 | 0.45 ± 0.017
313.15 K | 687 ± 1 | 1112 ± 5 | 0.415 ± 0.016

CCCCCCCC [octane] + COC(=O)c1ccccc1
[1], x2 = 0
Conditions | mass density [kg/m3] | speed of sound [m/s] | viscosity [mPa·s]
303.15 K | 693.9 ± 1 | 1148 ± 5 | 0.491 ± 0.018
308.15 K | 690.4 ± 1 | 1132 ± 5 | 0.45 ± 0.017
313.15 K | 687 ± 1 | 1112 ± 5 | 0.415 ± 0.016
